Among the data in patent publication US20220073496A1, “NOVEL QUINOLINE DERIVATIVE INHIBITOR” (Nanjing Transthera Biosciences Co., Ltd., priority 2018, published 2022) are IC50 and GI50 values, retold here.

By IC50 is commonly meant the concentration that inhibits the measured activity by half. Higher therefore signals weaker potency.

Experiment [1] has as its target T1, CSF1R (h) (Homo sapiens, UniProt P07333).
T1 construct: purchased
Briefly: Enzymatic activity test, CSF1R (h). It is filed as biochemical. Conditions: 10 μM [γ-33P]-ATP, 40 minutes, room temperature. As to the method: Assay 3: Enzymatic Activity Test of the Compounds of the Present Invention
(§1) Test substances: the compounds of the present invention, wherein the structures and preparations thereof were as described above.
(1) Preparation of the Compound Stock Solution
(§2) The compound was dissolved in 100% DMSO to prepare a stock solution with a maximum concentration of 500 μM.
(2) Preparation of the Compound Working Solution
The compound stock solution was diluted to final concentrations of 500, 150, 50, 15, 5, 1.5, 0.5, 0.15 and 0.05 μM to become the compound working solutions (50×).
(3) Preparation of Different Enzyme Reaction Solutions
The enzymatic reaction was activated by using 10 mM magnesium acetate and 10 μM [γ-^33P]-ATP to form an Mg/ATP mixed solution.
In a 384-well plate, the compound working solution was added to final concentrations of 10000, 3000, 1000, 300, 100, 30, 10, 3, and 1 nM. Then different enzyme reaction solutions prepared according to the above conditions were added. The incubation was carried out for 40 minutes at room temperature. The test was terminated by the addition of a 0.5% phosphoric acid solution. 10 μL of the reaction solution was taken and dropped to the P30 filter paper. […] The grayscale analysis of the results was performed using Image J software and the IC50 values were calculated using GraphPad 5.0 software.

In experiment [2] the target is T2, TrkA (h) (Homo sapiens, UniProt P04629).
T2 construct: purchased
Briefly: Enzymatic activity test, TrkA (h). It is filed as biochemical. Particulars: 10 μM [γ-33P]-ATP, 40 minutes, room temperature. The method, then:
(§3) Assay 4: Enzymatic Activity Test of the Compound of the Present Invention
as §1
(§4) Preparation of the Compound Stock Solution
as §2
(§5) Preparation of the Compound Working Solution
(§6) The compound stock solution was diluted to final concentrations of 500, 150, 50, 15. 5, 1.5, 0.5, 0.15 and 0.05 μM to become the compound working solutions (50×).
(§7) Preparation of Different Enzyme Reaction Solutions
The TrkA (h) enzyme was dissolved in 8 mM MOPS (pH 7.0), 0.2 mM EDTA, and 250 μM KKKSPGEYVNIEFG to prepare an enzyme solution having a final concentration of 1.7 nM. The enzymatic reaction was activated by using 10 mM magnesium acetate and 10 μM [γ-^33P]-ATP to form an Mg/ATP mixed solution.
(§8) In a 384-well plate, the compound working solution was added to final concentrations of 10000, 3000, 1000, 300, 100, 30, 10, 3, and 1 nM. Then different enzyme reaction solutions prepared according to the above conditions were added. The incubation was carried out for 40 minutes at room temperature. The test was terminated by the addition of a 0.5% phosphoric acid solution. 10 μL of the reaction solution was taken and dropped to the P30 filter paper. The filter paper was washed 4 times with 0.425% phosphoric acid solution and once with methanol, and then placed on a scintillation counter. The […] IC50 values were calculated using GraphPad 5.0 software.

Experiment [3] deals with T3, Ba/F3 LMNA-NTRK1 G667C cells (Homo sapiens, UniProt P04629, G667C, cells depend on it).
T3 construct: Ba/F3 LMNA-NTRK1 G667C and Ba/F3 LMNA-NTRK1-V573M are NTRK1 gene mutant cells; fused on or other part: P02545 (Prelamin-A/C)
Briefly: Cell viability test (CTG), Ba/F3 LMNA-NTRK1 G667C. It is filed as cell-based. Conditions: NTRK1 gene mutant cell, 72 hours, read-out: IC50 Ba/F3 LMNA-NTRK1 G667C. The text has this: (§9) Assay 8: Cell viability test of the compounds of the present invention
(§10) Ba/F3 LMNA-NTRK1 G667C and Ba/F3 LMNA-NTRK1-V573M are NTRK1 gene mutant cells.
(§11) Test substances: the compounds of the present invention, wherein the structures thereof were as described above.
(§12) Test instrument: SpectraMax multi-label microplate reader.
(§13) Each cell was inoculated in a 96-well plate and adherent cells were cultivated overnight. Different concentrations of the compounds (9 dose groups, 3.16 times DMSO serial dilution) were added to give the final concentration of 0.1-1000 nM, and the final DMSO content was 1‰. The negative control wells contained the medium containing 1‰ DMSO. The cells were incubated at 37° C. in a condition of 5% CO2 and 95% humidity for 72 hours for use. An equal volume of CTG reagent was added to each well, and the cells were lysed by shaking for 5 minutes on an orbital shaker, and incubated for 20 minutes at room temperature to stabilize the cold light signal. The cold light signal was read with a microplate reader. Data were analyzed using GraphPad Prism 5.0 software, and data were fitted using nonlinear S-curve regression to derive a dose-response curve and thereby calculate IC50 values.

Experiment [4] addresses T4, TrkB (h) (Homo sapiens, UniProt Q16620).
T4 construct: purchased
Briefly: Enzymatic activity test, TrkB (h). It is filed as biochemical. Particulars: 10 μM [γ-33P]-ATP, 40 minutes, room temperature. As to the method: as §3, §1, §4, §2, §5, §6, §7
The TrkB (h) enzyme was dissolved in 8 mM MOPS (pH 7.0), 0.2 mM EDTA, and 0.1 mg/mL poly(Glu, Tyr) 4:1 to prepare an enzyme solution having a final concentration of 3.1 nM. The enzymatic reaction was activated by using 10 mM magnesium acetate and 10 μM [γ-^33P]-ATP to form an Mg/ATP mixed solution,
as §8

Experiment [5] addresses T5, Ba/F3 LMNA-NTRK1-V573M cells (Homo sapiens, UniProt P04629, V573M, cells depend on it).
T5 construct: Ba/F3 LMNA-NTRK1 G667C and Ba/F3 LMNA-NTRK1-V573M are NTRK1 gene mutant cells; fused on or other part: P02545 (Prelamin-A/C)
Briefly: Cell viability test (CTG), Ba/F3 LMNA-NTRK1-V573M. Particulars: NTRK1 gene mutant cell, 72 hours, read-out: IC50 Ba/F3 LMNA-NTRK1-V573M. It is filed as cell-based.
Text: as §9, §10, §11, §12, §13

Experiment [6] deals with T6, TrkC (h) (Homo sapiens, UniProt Q16288).
T6 construct: purchased
Briefly: Enzymatic activity test, TrkC (h). Particulars: 10 μM [γ-33P]-ATP, 40 minutes, room temperature. It is filed as biochemical. As to the method:
as §3, §1, §4, §2, §5, §6, §7
The TrkC (h) enzyme was dissolved in 8 mM MOPS (pH 7.0), 0.2 mM EDTA, and 500 μM GEEPLYWSFPAKKK to prepare an enzyme solution having a final concentration of 38 nM. The enzymatic reaction was activated by using 10 mM magnesium acetate and 10 μM [γ-^33P]-ATP to form an Mg/ATP mixed solution.
as §8

In experiment [7] the target is T7, Ba/F3 LMNA-NTRK1 cells (Homo sapiens, UniProt P04629).
T7 construct: fused on or other part: P02545 (Prelamin-A/C)
Briefly: Cell viability test (CTG), Ba/F3 LMNA-NTRK1. Conditions: NTRK1 wild type cell, 72 hours, read-out: IC50 Ba/F3 LMNA-NTRK1. It is filed as cell-based. The method, then:
as §9
Ba/F3 LMNA-NTRK1 is an NTRK1 wild type cell;
as §11, §12, §13

T6 sequence (Q16288 32-839): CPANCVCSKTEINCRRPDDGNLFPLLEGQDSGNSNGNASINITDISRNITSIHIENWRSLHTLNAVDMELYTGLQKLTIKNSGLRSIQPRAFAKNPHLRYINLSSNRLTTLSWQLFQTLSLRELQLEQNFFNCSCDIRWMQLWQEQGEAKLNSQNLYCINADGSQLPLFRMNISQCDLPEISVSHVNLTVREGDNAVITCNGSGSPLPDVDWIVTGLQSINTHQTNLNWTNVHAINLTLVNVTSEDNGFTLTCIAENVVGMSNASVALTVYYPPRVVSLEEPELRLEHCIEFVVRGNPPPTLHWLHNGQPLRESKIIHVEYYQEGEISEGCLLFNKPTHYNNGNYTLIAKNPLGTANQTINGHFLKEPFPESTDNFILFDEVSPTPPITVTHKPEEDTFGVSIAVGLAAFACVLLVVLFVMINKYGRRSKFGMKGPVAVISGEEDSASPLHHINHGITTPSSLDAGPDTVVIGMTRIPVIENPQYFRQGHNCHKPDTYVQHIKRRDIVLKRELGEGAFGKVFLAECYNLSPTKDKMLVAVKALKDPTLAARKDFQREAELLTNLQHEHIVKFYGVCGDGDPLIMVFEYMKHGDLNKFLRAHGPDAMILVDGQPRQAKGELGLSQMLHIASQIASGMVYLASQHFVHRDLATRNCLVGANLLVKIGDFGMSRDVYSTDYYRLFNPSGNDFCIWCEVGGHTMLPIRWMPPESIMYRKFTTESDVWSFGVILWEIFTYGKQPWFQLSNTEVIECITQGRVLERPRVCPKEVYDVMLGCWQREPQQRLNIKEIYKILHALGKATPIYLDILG
T2 sequence (P04629 33-796): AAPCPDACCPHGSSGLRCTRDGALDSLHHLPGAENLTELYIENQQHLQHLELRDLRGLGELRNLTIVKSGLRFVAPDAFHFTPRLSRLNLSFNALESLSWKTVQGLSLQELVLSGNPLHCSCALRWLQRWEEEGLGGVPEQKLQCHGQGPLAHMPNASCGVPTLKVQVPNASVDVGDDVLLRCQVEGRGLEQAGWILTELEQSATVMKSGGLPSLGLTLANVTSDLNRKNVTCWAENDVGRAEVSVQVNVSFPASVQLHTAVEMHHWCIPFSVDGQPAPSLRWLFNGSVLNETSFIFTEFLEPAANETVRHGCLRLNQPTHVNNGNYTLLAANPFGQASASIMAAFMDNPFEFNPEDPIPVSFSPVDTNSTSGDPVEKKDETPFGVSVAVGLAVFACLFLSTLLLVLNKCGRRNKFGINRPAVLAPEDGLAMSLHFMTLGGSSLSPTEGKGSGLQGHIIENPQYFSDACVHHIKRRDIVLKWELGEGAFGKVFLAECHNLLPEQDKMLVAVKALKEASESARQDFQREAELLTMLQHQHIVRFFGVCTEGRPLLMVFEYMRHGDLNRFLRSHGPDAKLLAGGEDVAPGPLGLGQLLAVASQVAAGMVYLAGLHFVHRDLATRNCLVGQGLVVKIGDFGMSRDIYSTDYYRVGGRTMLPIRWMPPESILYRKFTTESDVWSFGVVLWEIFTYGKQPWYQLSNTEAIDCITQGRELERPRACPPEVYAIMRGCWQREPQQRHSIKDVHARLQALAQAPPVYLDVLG
T5 sequence (P04629 whole entry V573M, the tested form may be a part): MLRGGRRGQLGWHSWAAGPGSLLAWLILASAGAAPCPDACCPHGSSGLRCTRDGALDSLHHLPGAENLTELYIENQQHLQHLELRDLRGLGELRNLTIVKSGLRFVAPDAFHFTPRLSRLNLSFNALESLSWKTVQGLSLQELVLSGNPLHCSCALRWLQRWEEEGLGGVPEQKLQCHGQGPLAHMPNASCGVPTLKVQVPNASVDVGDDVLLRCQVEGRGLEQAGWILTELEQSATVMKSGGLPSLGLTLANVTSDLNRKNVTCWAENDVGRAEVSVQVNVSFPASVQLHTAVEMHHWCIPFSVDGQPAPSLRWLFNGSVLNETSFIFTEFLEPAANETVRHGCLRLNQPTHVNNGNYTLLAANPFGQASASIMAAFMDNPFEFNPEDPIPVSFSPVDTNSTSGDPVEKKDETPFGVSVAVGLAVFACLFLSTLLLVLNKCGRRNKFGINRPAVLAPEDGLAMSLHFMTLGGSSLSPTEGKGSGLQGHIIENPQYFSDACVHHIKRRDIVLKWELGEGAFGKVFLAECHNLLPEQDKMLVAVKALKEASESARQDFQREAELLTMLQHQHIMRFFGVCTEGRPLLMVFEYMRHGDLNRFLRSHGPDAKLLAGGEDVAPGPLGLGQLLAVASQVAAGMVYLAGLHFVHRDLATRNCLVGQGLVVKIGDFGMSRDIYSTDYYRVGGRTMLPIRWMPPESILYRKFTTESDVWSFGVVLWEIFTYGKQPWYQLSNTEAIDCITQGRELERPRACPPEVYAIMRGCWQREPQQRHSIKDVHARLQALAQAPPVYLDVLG
T4 sequence (Q16620 32-822): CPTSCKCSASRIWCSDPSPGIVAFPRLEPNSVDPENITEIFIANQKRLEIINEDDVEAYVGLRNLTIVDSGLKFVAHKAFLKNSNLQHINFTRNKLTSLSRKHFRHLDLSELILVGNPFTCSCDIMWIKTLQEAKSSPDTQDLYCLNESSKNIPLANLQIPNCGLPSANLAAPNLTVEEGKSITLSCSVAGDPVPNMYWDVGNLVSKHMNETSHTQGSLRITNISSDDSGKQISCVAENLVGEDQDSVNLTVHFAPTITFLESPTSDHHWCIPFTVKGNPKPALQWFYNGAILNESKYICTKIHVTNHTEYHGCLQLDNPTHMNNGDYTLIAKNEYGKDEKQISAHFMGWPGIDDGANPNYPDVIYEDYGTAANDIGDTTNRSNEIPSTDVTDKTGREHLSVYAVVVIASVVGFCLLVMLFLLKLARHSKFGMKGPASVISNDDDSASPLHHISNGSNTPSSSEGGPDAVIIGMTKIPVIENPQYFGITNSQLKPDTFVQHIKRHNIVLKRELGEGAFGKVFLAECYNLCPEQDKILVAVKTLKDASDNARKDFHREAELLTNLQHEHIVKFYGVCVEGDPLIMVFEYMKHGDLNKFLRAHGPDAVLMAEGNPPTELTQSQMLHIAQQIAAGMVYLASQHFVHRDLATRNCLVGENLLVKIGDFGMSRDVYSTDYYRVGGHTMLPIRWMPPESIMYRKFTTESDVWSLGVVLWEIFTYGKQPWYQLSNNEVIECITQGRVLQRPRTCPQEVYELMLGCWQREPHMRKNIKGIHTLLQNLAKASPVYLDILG
T1 sequence (P07333 20-972): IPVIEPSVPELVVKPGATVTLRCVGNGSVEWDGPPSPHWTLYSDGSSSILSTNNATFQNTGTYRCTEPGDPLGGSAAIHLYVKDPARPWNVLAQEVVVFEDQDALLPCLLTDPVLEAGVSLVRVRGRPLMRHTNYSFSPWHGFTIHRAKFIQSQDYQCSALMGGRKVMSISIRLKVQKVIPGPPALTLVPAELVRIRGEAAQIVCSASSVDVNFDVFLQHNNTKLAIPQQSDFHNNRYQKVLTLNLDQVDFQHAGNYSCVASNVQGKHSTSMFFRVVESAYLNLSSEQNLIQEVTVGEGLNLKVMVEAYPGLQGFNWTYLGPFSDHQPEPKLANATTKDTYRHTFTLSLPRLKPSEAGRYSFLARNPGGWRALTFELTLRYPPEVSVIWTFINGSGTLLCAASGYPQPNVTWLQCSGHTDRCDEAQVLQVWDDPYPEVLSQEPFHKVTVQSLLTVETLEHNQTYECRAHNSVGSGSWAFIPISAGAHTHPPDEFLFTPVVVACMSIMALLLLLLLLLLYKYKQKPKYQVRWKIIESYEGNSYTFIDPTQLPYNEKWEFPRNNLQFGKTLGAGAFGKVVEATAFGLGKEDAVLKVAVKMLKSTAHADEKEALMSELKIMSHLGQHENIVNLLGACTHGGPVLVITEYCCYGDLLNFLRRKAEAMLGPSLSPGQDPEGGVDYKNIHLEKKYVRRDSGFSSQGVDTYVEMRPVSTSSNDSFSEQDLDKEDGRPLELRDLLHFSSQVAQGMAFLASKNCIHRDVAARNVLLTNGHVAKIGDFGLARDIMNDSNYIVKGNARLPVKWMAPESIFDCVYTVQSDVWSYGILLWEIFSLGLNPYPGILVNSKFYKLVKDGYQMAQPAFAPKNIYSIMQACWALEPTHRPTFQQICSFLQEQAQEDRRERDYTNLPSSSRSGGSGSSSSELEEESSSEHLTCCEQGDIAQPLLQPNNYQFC
T7 sequence (P04629 whole entry, change not shown, the tested form may be a part): as the sequence (P04629 whole entry V573M, the tested form may be a part) above, with M573V counted along it
T3 sequence (P04629 whole entry G667C, the tested form may be a part): as the sequence (P04629 whole entry V573M, the tested form may be a part) above, with M573V, G667C counted along it

Molecule `COc1cc2nccc(Oc3cnc(NC(=O)c4nn(C(C)C)cc(-c5ccc(F)cc5)c4=O)nc3)c2cc1OC` [Compound 16, N-(5-((6,7-dimethoxyquinolin-4-yl)oxy)pyrimidine-2-yl)-5-(4-fluorophenyl)-1-isopropyl-4-oxo-1,4-dihydropyridazine-3-carboxamide] showed an IC50 in experiment [1] of 61 nM.
Consider `COc1cc2nccc(Oc3ccc(NC(=O)c4cn(C5CC5)cc(-c5ccc(F)cc5)c4=O)nc3)c2cc1OC` [Compound 30, N-(5-((6,7-dimethoxyquinolin-4-yl)oxy)pyridin-2-yl)-1-cyclopropyl-4-oxo-5-para-fluorophenyl-1,4-hydropyridin-3-carboxamide], for which the half-inhibitory concentration (IC50) in experiment [1] came to 61 nM.
On to `COc1cc2nccc(Oc3ccc(NC(=O)c4cn(C(C)C)cc(-c5ccc(F)cc5)c4=O)nc3)c2cc1OC` [Compound 14, N-(5-((6,7-dimethoxyquinolin-4-yl)oxy)pyridin-2-yl)-5-(4-fluorophenyl)-1-isopropyl-4-oxo-1,4-dihydropyridin-3-carboxamide], for which the IC50 in experiment [1] turned out to be 55 nM.
`COc1cc2nccc(Oc3cnc(NC(=O)c4cn(C5CC5)cc(-c5ccc(F)cc5)c4=O)nc3)c2cc1OC` [Compound 32, 1-cyclopropyl-N-(5-((6,7-dimethoxyquinolin-4-yl)oxy)pyrimidine-2-yl)-5-(4-fluorophenyl)-4-oxo-1,4-dihydropyridin-3-carboxamide] gave a 50% inhibitory concentration (IC50) in experiment [1] of 93 nM.
As to `COc1cc2nccc(Oc3cnc(NC(=O)c4nn(C5CC5)cc(-c5ccc(F)cc5)c4=O)nc3)c2cc1OC` [Compound 33], the IC50 in experiment [2] is 13 nM; in experiment [4] it was 8 nM; in experiment [1], 37 nM; in experiment [6] it was 5 nM. Further, the GI50 in experiment [3] is 3 nM; in experiment [5] it was 6 nM; in experiment [7], 73 nM.
For `COc1cc2nccc(Oc3ncc(NC(=O)c4cn(C(C)C)nc(-c5ccc(F)cc5)c4=O)cn3)c2cc1OC` [Compound 40, N-(2-((6,7-dimethoxyquinolin-4-yl)oxy)pyrimidine-5-yl)-6-(4-fluorophenyl)-2-isopropyl-5-oxo-2,5-dihydropyridazine-4-carboxamide], the half-maximal inhibitory concentration (IC50) in experiment [2] was found to be 7 nM; in experiment [4], 6 nM; in experiment [1] it was 259 nM; in experiment [6] it was 14 nM. Further, the GI50 was 9.1 nM in experiment [3], 9.1 nM in experiment [5] and 52.1 nM in experiment [7].
With `COc1cc2nccc(Oc3ccc(NC(=O)c4cn(C(C)C)nc(-c5ccc(F)cc5)c4=O)nc3)c2cc1OC` [Compound 41, N-(5-((6,7-dimethoxyquinolin-4-yl)oxy)pyridin-2-yl)-6-(4-fluorophenyl)-2-isopropyl-5-oxo-2,5-dihydropyridazine-4-carboxamide], the half-maximal inhibitory concentration (IC50) in experiment [2] came out at 5 nM.
As for `COc1cc2nccc(Oc3ncc(NC(=O)c4nn(C5CC5)cc(-c5ccc(F)cc5)c4=O)cn3)c2cc1OC` [Compound 37, 1-cyclopropyl-N-(2-((6,7-dimethoxyquinolin-4-yl)oxy)pyrimidine-5-yl)-5-para-fluorophenyl-4-oxo-1,4-dihydropyridazine-3-carboxamide], the results for the IC50 in experiment [2], in experiment [4] and in experiment [6] were 7 nM, 6 nM and 4 nM, respectively.
For the molecule `COc1cc2nccc(Oc3ccc(NC(=O)c4nn(C(C)C)cc(-c5ccc(F)cc5)c4=O)cn3)c2cc1OC` [Compound 29, N-(6-((6,7-dimethoxyquinolin-4-yl)oxy)pyridin-3-yl)-1-isopropyl-4-oxo-5-para-fluorophenyl-1,4-dihydropyridazine-3-carboxamide], the half-inhibitory concentration (IC50) in experiment [1] was determined as 51 nM.
For the molecule `COc1cc2nccc(Oc3ccc(NC(=O)c4nn(C5CC5)cc(-c5ccc(F)cc5)c4=O)nc3)c2cc1OC` [Compound 31], the IC50 in experiment [2] came out at 3 nM; in experiment [4], 3 nM; in experiment [1], 20 nM; in experiment [6], 3 nM. The GI50 was found to be 1.4 nM in experiment [3], 1.4 nM in experiment [5] and 17.3 nM in experiment [7].
With `COc1cc2nccc(Oc3ccc(NC(=O)c4cn(C(C)C)nc(-c5ccc(F)cc5)c4=O)cn3)c2cc1OC` [Compound 38, N-(6-((6,7-dimethoxyquinolin-4-yl)oxy)pyridin-3-yl)-6-para-fluorophenyl-2-isopropyl-5-oxo-2,5-dihydropyridazine-4-carboxamide], the IC50 in experiment [2] worked out at 11 nM; in experiment [4], 11 nM; in experiment [1] it was 57 nM; in experiment [6], 8 nM. In addition, the GI50 in experiment [3] worked out at 5.7 nM; in experiment [5], 7.5 nM; in experiment [7] it was 55.1 nM.
In the case of `COc1cc2nccc(Oc3ccc(NC(=O)c4nn(C5CC5)cc(-c5ccc(F)cc5)c4=O)cn3)c2cc1OC` [Compound 36], the IC50 in experiment [2] was 2 nM; in experiment [4], 4 nM; in experiment [1], 68 nM; in experiment [6], 3 nM.
`COc1cc2nccc(Oc3cnc(NC(=O)c4cn(C(C)C)cc(-c5ccc(F)cc5)c4=O)nc3)c2cc1OC` [Compound 20, N-(5-((6,7-dimethoxyquinolin-4-y)oxy)pyrimidine-2-yl)-5-(4-fluorophenyl)-1-isopropyl-4-oxo-1,4-dihydropyridin-3-carboxamide]: the IC50 in experiment [1] worked out at 78 nM.
As for `COc1cc2nccc(Oc3ccc(NC(=O)c4cn(C(C)C)cc(-c5ccc(C)cc5)c4=O)nc3)c2cc1OC` [Compound 1, N-(5-((6,7-dimethoxyquinolin-4-yl)oxy)pyridin-2-yl)-1-isopropyl-4-oxo-5-p-tolyl-1,4-dihydropyridin-3-carboxamide], in experiment [1], the IC50 came to 200 nM.
